# Results published in patent publication US20260042764A1, “COMPOSITIONS AND METHODS FOR INHIBITION OF KRAS” (TheRas, Inc., priority 2022, published 2026).
# Columns and labels:
# [1] = target: T1, Avi-KRAS G12R (1-169) GppNHp/RAF1 RBD-3xFLAG (52-151) (Homo sapiens, UniProt P01116, G12R); test: Raf1-KRAS G12R-GppNHP disruption HTRF assay (Biological Example 1); format: binding
# T1 construct: Avi-KRAS G12R (1-169)
# In short: (§1)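 Compounds were tested for disruption of KRAS–RAF1 RBD binding by HTRF in 50 mM Tris pH 7.5, 100 mM NaCl, 5 mM MgCl2, 0.1% BSA, 0.01% Tween, 10% DMSO. Protein mix was incubated 1 h at room temperature with shaking, then detection reagents added for another 1 h. Activity expressed as percent of DMSO control.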
# [2] = target: T2, Avi-KRAS G12V (1-169) GppNHp/RAF1 RBD-3xFLAG (52-151) (Homo sapiens, UniProt P01116, G12V); test: Raf1-KRAS G12V-GppNHP disruption HTRF assay (Biological Example 1); format: binding
# T2 construct: Avi-KRAS G12V (1-169)
# T2 sequence (P01116 1-169 isoform P01116-2 G12V): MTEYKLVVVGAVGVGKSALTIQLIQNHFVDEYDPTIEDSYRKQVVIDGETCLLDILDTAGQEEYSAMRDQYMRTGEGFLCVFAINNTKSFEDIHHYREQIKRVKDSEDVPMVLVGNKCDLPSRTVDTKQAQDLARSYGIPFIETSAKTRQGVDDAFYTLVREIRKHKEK
# In short: as §1
# SW620 cells (KRAS G12V) = test: Cell-based pERK HTRF assay in SW620 cell (Biological Example 4); conditions: Homo sapiens, SW-620, SW620 (KRAS G12V) cells, pERK HTRF
# In short: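 SW620 cells were treated for 4 h with compound in a 9-point half-log series from 1 μM top (0.25% DMSO), then lysed. Phospho-ERK was detected by HTRF with d2 and Eu cryptate antibodies after 4–24 h at room temperature, read at 615 nm emission.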
# [3] = target: T3, Avi-KRAS G12D (1-169) GppNHp/RAF1 RBD-3xFLAG (52-151) (Homo sapiens, UniProt P01116, G12D); test: Raf1-KRAS G12D-GppNHP disruption HTRF assay (Biological Example 1); format: binding
# T3 construct: Avi-KRAS G12D (1-169)
# T3 sequence (P01116 1-169 isoform P01116-2 G12D): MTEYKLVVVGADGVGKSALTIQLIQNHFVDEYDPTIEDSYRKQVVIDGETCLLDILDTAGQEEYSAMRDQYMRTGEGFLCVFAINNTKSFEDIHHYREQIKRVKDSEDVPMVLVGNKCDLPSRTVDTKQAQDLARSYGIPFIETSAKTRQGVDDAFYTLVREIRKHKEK
# In short: as §1
# GP2d cells (KRAS G12D) = test: Cell-based pERK HTRF assay in GP2d cell (Biological Example 2); conditions: GP2d, GP2d (KRAS G12D) cells, pERK HTRF
# In short: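 HTRF read-out of pERK (excitation 320 nm, emission 615 nm) after lysates sat 4–24 h at room temperature with Eu cryptate and d2 antibodies.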
# [4] = target: T4, Avi-KRAS WT (1-169) GppNHp/RAF1 RBD-3xFLAG (52-151) (Homo sapiens, UniProt P01116); test: Raf1-KRAS WT-GppNHP disruption HTRF assay (Biological Example 1); format: binding
# T4 construct: Avi-KRAS WT (1-169)
# T4 sequence (P01116 1-169 isoform P01116-2): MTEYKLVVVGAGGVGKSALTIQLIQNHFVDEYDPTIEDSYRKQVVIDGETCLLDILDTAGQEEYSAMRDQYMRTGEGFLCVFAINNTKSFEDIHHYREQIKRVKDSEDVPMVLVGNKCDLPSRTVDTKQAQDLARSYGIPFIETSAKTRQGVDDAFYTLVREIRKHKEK
# In short: as §1
# [5] = KRAS G12R, GppNHp-loaded, Table 11
# [6] = KRAS G12V, GppNHp-loaded, Table 11
# [7] = KRAS G12D, GppNHp-loaded, Table 11
# [8] = KRAS WT, GppNHp-loaded, Table 11
# [9] = KRAS G12R, GppNHp-loaded, class symbols
# [10] = KRAS G12V, GppNHp-loaded, class symbols
# [11] = KRAS G12D, GppNHp-loaded, class symbols
# [12] = KRAS WT, GppNHp-loaded, class symbols
# T1 sequence (P01116 1-169 isoform P01116-2 G12R): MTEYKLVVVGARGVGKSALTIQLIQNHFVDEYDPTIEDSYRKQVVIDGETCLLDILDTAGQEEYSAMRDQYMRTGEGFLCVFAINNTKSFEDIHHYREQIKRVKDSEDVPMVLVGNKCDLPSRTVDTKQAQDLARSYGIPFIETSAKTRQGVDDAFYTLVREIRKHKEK
IC50 ([1]; KRAS G12R-GppNHp/RAF1 RBD HTRF),IC50 ([2]; KRAS G12V-GppNHp/RAF1 RBD HTRF),IC50 (SW620 cells (KRAS G12V)),IC50 ([3]; KRAS G12D-GppNHp/RAF1 RBD HTRF),IC50 (GP2d cells (KRAS G12D)),IC50 ([4]; KRAS WT-GppNHp/RAF1 RBD HTRF),"IC50 [1, 5]","IC50 [2, 6]","IC50 [3, 7]","IC50 [4, 8]","IC50 [1, 9]","IC50 [2, 10]",IC50 (SW620 cells (KRAS G12V); class symbols),"IC50 [3, 11]",IC50 (GP2d cells (KRAS G12D); class symbols),"IC50 [4, 12]",SMILES
100 to 1000 nM,100 to 1000 nM,< 100 nM,< 100 nM,< 100 nM,100 to 1000 nM,,,,,,,,,,,CCN(c1nc(OC[C@@]23CCCN2C[C@H](F)C3)nc2c(F)c(-c3ccc(F)c4sc(N)c(C#N)c34)c(C(F)(F)F)cc12)[C@H]1CC(=O)N(CC(F)F)C1 [Compound 549]
,,< 100 nM,,< 100 nM,,100 to 1000 nM,100 to 1000 nM,100 to 1000 nM,100 to 1000 nM,,,,,,,C[C@@]1(O)CCCN(c2nc(OC[C@@]34CCCN3C[C@H](F)C4)nc3c(F)c(-c4ccc(F)c5sc(N)c(C#N)c45)c(C(F)(F)F)cc23)C1 [Compound 224]
,,,,,,,,,,1000 to 10000 nM,1000 to 10000 nM,100 to 1000 nM,1000 to 10000 nM,100 to 1000 nM,1000 to 10000 nM,"N#Cc1c(N)sc2c(F)ccc(-c3c(C(F)(F)F)cc4c(N5C[C@H]6[C@@H]5CCN6C(=O)C5CC5)nc(OC[C@@]56CCCN5C[C@H](F)C6)nc4c3F)c12 (atropisomer, axis not shown) [Compound 643]"
1000 to 10000 nM,1000 to 10000 nM,< 100 nM,100 to 1000 nM,< 100 nM,1000 to 10000 nM,,,,,,,,,,,CN(C)C(=O)c1cnn2c1CN(c1nc(OC[C@@]34CCCN3C[C@H](F)C4)nc3c(F)c(-c4ccc(F)c5sc(N)c(C#N)c45)c(C(F)(F)F)cc13)CC2 [Compound 353]
< 100 nM,100 to 1000 nM,< 100 nM,< 100 nM,< 100 nM,100 to 1000 nM,,,,,,,,,,,"CCN(c1nc(OC[C@@]23CCCN2C[C@H](F)C3)nc2c(F)c(-c3ccc(F)c4sc(N)c(C#N)c34)c(C(F)(F)F)cc12)[C@H]1CCN(C(=O)OC(C)C)C1 (atropisomer, axis not shown) [Compound 556]"
,,,,,,,,,,< 100 nM,< 100 nM,< 100 nM,< 100 nM,< 100 nM,< 100 nM,"CCN(c1nc(OC[C@@]23CCCN2C[C@H](F)C3)nc2c(F)c(-c3ccc(F)c4sc(N)c(C#N)c34)c(C(F)(F)F)cc12)[C@H]1C[C@H](C)N(C(=O)c2ccon2)C1 (atropisomer, axis not shown) [Compound 766]"
100 to 1000 nM,100 to 1000 nM,< 100 nM,100 to 1000 nM,< 100 nM,100 to 1000 nM,,,,,,,,,,,CCN(c1nc(OC[C@@]23CCCN2C[C@H](F)C3)nc2c(F)c(-c3ccc(F)c4sc(N)c(C#N)c34)c(C(F)(F)F)cc12)[C@@H]1CCN(C(=O)C2CC2)[C@@H]1C [Compound 406]
,,> 1000 nM,,> 1000 nM,,> 10000 nM,> 10000 nM,> 10000 nM,> 10000 nM,,,,,,,CC(=O)N1CC[C@H](N(C)c2nc(OC[C@@H]3C[C@@H](F)CN3C)nc3c(F)c(-c4ccc(F)c5sc(N)c(C#N)c45)c(C(F)(F)F)cc23)[C@@H]1C [Compound 226]
,,,,,,,,,,< 100 nM,< 100 nM,< 100 nM,< 100 nM,< 100 nM,< 100 nM,"CCN(c1nc(OC[C@@]23CCCN2C[C@H](F)C3)nc2c(F)c(-c3ccc(F)c4sc(N)c(C#N)c34)c(C(F)(F)F)cc12)[C@H]1CCN(C(=O)[C@@H]2CC2(F)F)[C@@H]1C (atropisomer, axis not shown) [Compound 693]"
100 to 1000 nM,100 to 1000 nM,< 100 nM,< 100 nM,< 100 nM,100 to 1000 nM,,,,,,,,,,,CCN(c1nc(OC[C@@]23CCCN2C[C@H](F)C3)nc2c(F)c(-c3ccc(F)c4sc(N)c(C#N)c34)c(C(F)(F)F)cc12)[C@H]1C[C@@H](C)N(C(C)=O)C1 [Compound 446]
> 10000 nM,> 10000 nM,> 1000 nM,> 10000 nM,> 1000 nM,> 10000 nM,,,,,,,,,,,C[C@@]1(CO)CCN1c1nc(OC[C@@]23CCCN2C[C@H](F)C3)nc2c(F)c(-c3ccc(F)c4sc(N)c(C#N)c34)c(C(F)(F)F)cc12 [Compound 413]
,,> 1000 nM,,> 1000 nM,,> 10000 nM,> 10000 nM,> 10000 nM,> 10000 nM,,,,,,,CO[C@@H]1C[C@@H](COc2nc(N(C)[C@H]3CCN(C(C)=O)[C@H]3C)c3cc(C(F)(F)F)c(-c4ccc(F)c5sc(N)c(C#N)c45)c(F)c3n2)N(C)C1 [Compound 238]
,,,,,,,,,,< 100 nM,< 100 nM,< 100 nM,< 100 nM,< 100 nM,< 100 nM,CCN(c1nc(OCC23CCCN2CC(F)C3)nc2c(F)c(-c3ccc(F)c4sc(N)c(C#N)c34)c(C(F)(F)F)cc12)C1CCN(C(=O)c2ccccn2)C1 (stereo not drawn) [Compound 737]
,,,,,,,,,,< 100 nM,< 100 nM,< 100 nM,< 100 nM,< 100 nM,< 100 nM,"CCN(C)C(=O)N1CC[C@H](N(CC)c2nc(OC[C@@]34CCCN3C[C@H](F)C4)nc3c(F)c(-c4ccc(F)c5sc(N)c(C#N)c45)c(C(F)(F)F)cc23)C1 (atropisomer, axis not shown) [Compound 582]"
,,< 100 nM,,< 100 nM,,100 to 1000 nM,1000 to 10000 nM,100 to 1000 nM,100 to 1000 nM,,,,,,,CN(c1nc(OC[C@@]23CCCN2C[C@H](F)C3)nc2c(F)c(-c3ccc(F)c4sc(N)c(C#N)c34)c(C(F)(F)F)cc12)C1CC(F)(F)C1 [Compound 162]
,,< 100 nM,,< 100 nM,,1000 to 10000 nM,1000 to 10000 nM,100 to 1000 nM,100 to 1000 nM,,,,,,,CN1CCN(c2nc(OC[C@@]34CCCN3C[C@H](F)C4)nc3c(F)c(-c4ccc(F)c5sc(N)c(C#N)c45)c(C(F)(F)F)cc23)CC1=O [Compound 257]
,,,,,,,,,,< 100 nM,< 100 nM,< 100 nM,< 100 nM,< 100 nM,< 100 nM,"CCN(c1nc(OC[C@@]23CCCN2C[C@H](F)C3)nc2c(F)c(-c3ccc(F)c4sc(N)c(C#N)c34)c(C(F)(F)F)cc12)[C@H]1CCN(C(=O)[C@H](C)CO)C1 (atropisomer, axis not shown) [Compound 746]"
,,,,,,,,,,100 to 1000 nM,100 to 1000 nM,< 100 nM,100 to 1000 nM,< 100 nM,100 to 1000 nM,"CCN(c1nc(OC[C@@]23CCCN2C[C@H](F)C3)nc2c(F)c(-c3ccc(F)c4sc(N)c(C#N)c34)c(C(F)(F)F)cc12)[C@H]1C[C@H](COC)N(C(=O)N(C)C)C1 (atropisomer, axis not shown) [Compound 717]"
,,,,,,,,,,1000 to 10000 nM,1000 to 10000 nM,100 to 1000 nM,1000 to 10000 nM,100 to 1000 nM,1000 to 10000 nM,C[C@@H]1[C@H](N(C)c2nc(OC[C@]34C[C@@H](F)CN3CC3(CC3)C4)nc3c(F)c(-c4ccc(F)c5sc(N)c(C#N)c45)c(Cl)cc23)CCN1C(=O)C1CC1 [Compound 593]
1000 to 10000 nM,1000 to 10000 nM,100 to 1000 nM,100 to 1000 nM,< 100 nM,1000 to 10000 nM,,,,,,,,,,,CCN(c1nc(OC[C@@]23CCCN2C[C@H](F)C3)nc2c(F)c(-c3ccc(F)c4sc(N)c(C#N)c34)c(C(F)(F)F)cc12)[C@H]1CC(=O)N(C2CC2)C1 [Compound 496]
,,100 to 1000 nM,,< 100 nM,,100 to 1000 nM,1000 to 10000 nM,100 to 1000 nM,100 to 1000 nM,,,,,,,CN(c1nc(OC[C@@]23CCCN2C[C@H](F)C3)nc2c(F)c(-c3ccc(F)c4sc(N)c(C#N)c34)c(C(F)(F)F)cc12)C1CCOCC1 [Compound 264]
,,< 100 nM,,< 100 nM,,100 to 1000 nM,1000 to 10000 nM,100 to 1000 nM,100 to 1000 nM,,,,,,,N#Cc1c(N)sc2c(F)ccc(-c3c(C(F)(F)F)cc4c(N5CCCCC5)nc(OC[C@@]56CCCN5C[C@H](F)C6)nc4c3F)c12 [Compound 203]
